Results on 1 compound are retold here after publication PMC10517971, “An inverse agonist of orphan receptor GPR61 acts by a G protein-competitive allosteric mechanism” (Nature Communications, 2023).

By IC50 is commonly meant the point on the concentration scale where inhibition reaches its midpoint.

“And” between values parts separate entries of the source, which are not always exact repeats. Equal entries are not always repeated. Where two headings read alike, the source gives them in different places.

Common to all, as to type: cell-based
For one assay, the target named is T1, human GPR101 (Homo sapiens, UniProt Q96P66).
T1 construct: expressed in transfected cells
Kind of assay: Functional cAMP assay (HTRF), stable CHO TREx human GPR101 cells. Particulars: Supplementary Table 2. On the procedure: A homogeneous Time-Resolved Fluorescence (HTRF) assay (Perkin Elmer, Dynamic2 kit #) was used to assess receptor basal and inverse agonist activity at human GPR61, GPR62, and GPR101. For routine inverse agonist screening frozen CHO TREx human GPR61, GPR62 and GPR101 cells were used. Cells were thawed, resuspended in complete assay media (DMEM F-12, 10% HI FBS, 100 μg/mL Normocin, 700 μg/mL Hygromycin B and 15 μg/mL Blasticidin) containing 1ug/ml doxycycline, plated in white 384 well plates (Corning, 3570) at a density of 750 cells/well (25 μl/ well) and cultured at 37 °C in an incubator overnight. For studies assessing basal and inverse agonist activity at human GPR61 mutants, CHO-K1 cells were transiently transfected using Fugene6, plated in white 384 well plates (7500 cells/well) and grown overnight at 37 °C, as described for receptor expression studies. […] Data were analyzed using the ratio of fluorescence intensity at 620 and 665 nm for each well, extrapolated from the cAMP standard curve to express data as nM cAMP for each well. […]
(In general: Cyclic AMP is a second messenger, typically raised through Gs and lowered through Gi signalling.)

A further assay concerns the target T2, human GPR61 V288A (Homo sapiens, UniProt Q9BZJ8, V288A).
T2 construct: expressed in transfected cells; host or cells: CHO-K1, transient (Fugene6)
Kind of assay: Functional cAMP assay (HTRF), transiently transfected CHO-K1 cells, GPR61 V288A mutant. The conditions noted are these: for IC50: Fig. 3e table. From the text: (§1) The human GPR61 (reference sequence NM_031936.4) cDNA was synthesized and subcloned into pcDNA5/FRT/TO (Thermo Fisher, Pittsburgh, PA). The pcDNA5/FRT/TO/ human GPR61 plasmid was then transfected into the Flp-In™-CHO Cell Line (Thermo Fisher, Pittsburgh, PA) and a doxycycline-inducible clonal cell line was selected (CHO TREx hGPR61 WT). Sequences encoding untagged and HiBit/hemagglutinin (HA)-tagged versions of the wild-type human GPR61 were synthesized and cloned into pcDNA3.1. The HiBit ([…]) and HA ([…]) tags were sequentially included after the N-terminal initiator methionine. Four single amino acid substitutions (N137A, R140A, V288A, N345A) were then introduced in the untagged and tagged human GPR61 constructs using site-specific mutagenesis. The nucleotide sequences of all receptor constructs were confirmed by automated DNA sequencing.
Parental CHO-K1 cells were maintained at 37 °C in a humidified environment (5% CO2) and grown in Dulbecco’s Modified Eagle Medium (DMEM) F-12 media (Gibco, 11320033) supplemented with 10% FBS, 1% Glutamax (Gibco, 35050061) and 100units/ml penicillin and streptomycin (Gibco, 15140122. Cells were dissociated using a cell dissociation solution (Gibco, 13151-014), counted, and resuspended in complete culture media without antibiotics. Cells were then transiently transfected using Fugene6 (Promega) in a 384-well plate format (Corning, 3570). For each well, 7500 cells were transfected with 5 ng of receptor plasmid, 20 ng of carrier DNA (Promega, PAE4881) and 0.075 μl Fugene6 in a final volume of 25 μl. Fugene6 and DNA were separately diluted in Optimem media (Gibco, 31985070) (1.25 μl final volume each). Fugene6 and DNA solutions were then combined and incubated for 15 min at room temperature. The cell containing solution (22.5 μl) was then added and transfection reactions were mixed and transferred to the assay plate. Following 24 h incubation at 37 °C, wells were rinsed once and 25 μl of HiBit assay buffer (Phenol-red free DMEM F-12 media containing 2% FBS) was added per well. Surface and total receptor expression was measured separately by adding 25 μl per well of the extracellular (Promega, PRN2421) and lytic (Promega, PRN3040) assay solutions, respectively. Plates were incubated for 10 min at room temperature on a shaker and luciferase activity was measured using an EnVision plate reader (Perkin Elmer, Chicago, IL). Expression was normalized as percent of the wild-type receptor signal. Statistical comparisons of expression levels observed with WT versus GPR61 mutants were made by one-way analysis of variance with Dunnett’s post hoc test.
A homogeneous Time-Resolved Fluorescence (HTRF) assay (Perkin Elmer, Dynamic2 kit #) was used to assess receptor basal and inverse agonist activity at human GPR61, GPR62, and GPR101. […]

The next assay concerns the target T3, human GPR61 (Homo sapiens, UniProt Q9BZJ8).
T3 construct: expressed in transfected cells; host or cells: CHO-K1, transient (Fugene6)
Description: Functional cAMP assay (HTRF), stable CHO TREx human GPR61 cells.
Text: as §1
A homogeneous Time-Resolved Fluorescence (HTRF) assay (Perkin Elmer, Dynamic2 kit #) was used to assess receptor basal and inverse agonist activity at human GPR61, GPR62, and GPR101. For routine inverse agonist screening frozen CHO TREx human GPR61, GPR62 and GPR101 cells were used. […] Data were analyzed using the ratio of fluorescence intensity at 620 and 665 nm for each well, extrapolated from the cAMP standard curve to express data as nM cAMP for each well. […]

T2 sequence (Q9BZJ8 whole entry V288A): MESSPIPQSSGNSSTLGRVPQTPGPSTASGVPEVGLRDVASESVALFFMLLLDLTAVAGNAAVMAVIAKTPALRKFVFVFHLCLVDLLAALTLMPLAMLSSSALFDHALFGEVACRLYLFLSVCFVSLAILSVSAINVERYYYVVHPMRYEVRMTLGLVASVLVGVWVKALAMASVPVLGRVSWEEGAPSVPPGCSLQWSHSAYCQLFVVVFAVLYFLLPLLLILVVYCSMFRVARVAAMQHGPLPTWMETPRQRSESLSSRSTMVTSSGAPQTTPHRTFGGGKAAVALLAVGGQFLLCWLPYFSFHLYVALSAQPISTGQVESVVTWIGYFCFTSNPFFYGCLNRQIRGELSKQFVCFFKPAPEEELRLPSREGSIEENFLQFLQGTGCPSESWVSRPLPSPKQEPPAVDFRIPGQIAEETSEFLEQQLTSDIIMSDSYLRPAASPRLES
T3 sequence (Q9BZJ8 whole entry): as the sequence (Q9BZJ8 whole entry V288A) above, with A288V counted along it
T1 sequence (Q96P66 whole entry): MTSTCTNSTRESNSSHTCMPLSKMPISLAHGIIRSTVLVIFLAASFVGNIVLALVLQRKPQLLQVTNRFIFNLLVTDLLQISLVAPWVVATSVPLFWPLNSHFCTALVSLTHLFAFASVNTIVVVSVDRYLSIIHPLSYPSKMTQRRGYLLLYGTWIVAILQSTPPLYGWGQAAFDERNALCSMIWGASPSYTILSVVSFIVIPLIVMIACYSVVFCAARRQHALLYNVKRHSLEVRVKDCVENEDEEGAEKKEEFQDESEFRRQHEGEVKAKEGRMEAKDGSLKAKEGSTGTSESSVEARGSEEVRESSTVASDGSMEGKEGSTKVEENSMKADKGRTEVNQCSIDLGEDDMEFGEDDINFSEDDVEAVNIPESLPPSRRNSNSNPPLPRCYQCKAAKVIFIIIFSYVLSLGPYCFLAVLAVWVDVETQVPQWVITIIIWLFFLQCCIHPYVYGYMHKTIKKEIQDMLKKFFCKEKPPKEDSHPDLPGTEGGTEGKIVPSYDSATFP

In the case of `CCOc1cc(C)nc(N(CCOC)S(=O)(=O)c2ccc(NCc3c(F)cncc3F)nc2OC)n1` [Compound 1], the IC50 against human GPR101 was greater than 29.7 µM; on human GPR61 V288A (HiBit-tagged, read-out: GPR61 cAMP IC50 (95% CI), V288A HiBit-tagged), 400 nM; at human GPR61 V288A (untagged, read-out: GPR61 cAMP IC50 (95% CI), V288A Untagged) it was 406 nM; against human GPR61 (stable CHO TREx cells, Supplementary Table 2), 0.021 µM. For the same compound, the “cAMP response (Figure 3e source data)” value at human GPR61 V288A (HiBit V288A, concentration -6) is 0.67 and 0.63 and 0.87 and 1.10 and 0.64 and 0.60. On human GPR61 V288A (V288A mutant vs wild-type), the “sensitivity of the receptor to inverse agonism in the cAMP assay” value is recorded as “less sensitive”. Besides, the “potency against GPR61 relative to GPR62 and GPR101” value on human GPR61 (GPR61 vs GPR62 and GPR101, peer review reply) is “roughly 1000 fold”.
